Measured values as given in the METLIN SMRT retention time set (Domingo-Almenara et al. 2019).

Assay: gradient 5% acetonitrile 3 min, to 50% in 2 min, to 85% in 15 min, held 3 min, 100 µL/min
Settings: column: Zorbax Extend-C18 2.1 x 50 mm; eluents: water / acetonitrile, 0.1% formic acid
How it was run: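 Retention times of pure standards were taken from adduct peaks that were selected by computer and manually inspected. Over 3 months, mixtures of ~100 molecules were run by HPLC–quadrupole time-of-flight mass spectrometry in positive and negative ionization mode. The Zorbax Extend-C18 column (2.1 × 50 mm, 1.8 μm) ran at 100 μL/min in water and acetonitrile, each containing 0.1% formic acid, with 40 μL dead volume and 900 μL dwell volume.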

Compound	RP-LC retention time
COc1ccccc1NC(=O)Cn1cnc2nc(N3CCC(C(=O)NC4CC4)CC3)sc2c1=O	656 s
Cc1c(Cl)cccc1NC(=O)C(=O)NCC1(c2ccc(F)cc2)CC1	1110 s
O=S(=O)(c1cccnc1)N1CC(c2nc(CCOCC3CCOCC3)no2)C1	710 s
COc1ccc2[nH]c3c(c2c1)CCN1C(=O)N(c2ccc(Cl)c(Cl)c2)C(=O)C31C (centres undefined)	1120 s
CC(C)Cn1nc(CNC(=O)C2CCC2)c2ccccc21	872 s
CCn1cc(S(=O)(=O)NCc2cc(F)cc(F)c2)c2cccnc21	828 s
CCN1C(=O)c2c(C(=O)NCc3cccc(Cl)c3)ncn2CC1(C)C(=O)NC1CCCC1 (centres undefined)	804 s
CCc1cnc2c(c1SCC(=O)N(CC)CC)c(=O)n(C)c(=O)n2C	786 s
COc1ccc(C2(C(=O)N3CCn4ccnc4C3C(C)C)CC2)cc1 (centres undefined)	568 s
Cc1nc(-c2ccc(N3CCN(C(=O)COc4ccc(Cl)cc4)CC3)nc2)sc1C	949 s
Cc1cc(N2CCN(C)CC2)nc(N2CCN(C(=O)c3ccc(Br)cc3)CC2)n1	557 s
CCN1C(=O)C(CC(=O)N2CCCC2)Sc2ncccc21 (centres undefined)	654 s
CCCc1nc2cccnc2n1C1CCN(C(=O)c2ccc(OC)nc2)C1 (centres undefined)	588 s
Cc1nnc(N2CCCC(C(=O)NCCc3ccccc3)C2)c2nn(-c3ccc(Cl)cc3)c(C)c12 (centres undefined)	789 s
COc1ccc(-c2cc3n(n2)CCCN(S(=O)(=O)CCc2ccccc2)C3)cc1	983 s
O=C(c1ccco1)N1CCN(C(=O)c2nnn3c2COC(c2ccc(Cl)cc2)C3)CC1 (centres undefined)	838 s
COc1cc(NC(=O)C2CCCN(c3nnc4ccc(Cl)cn34)C2)cc(OC)c1OC (centres undefined)	734 s
COc1ccccc1N1CCN(CCCCN2C(=O)c3ccccc3C2=O)CC1	751 s
Cc1nc([C@@H]2CN(C(=O)CCc3nc4ccccc4s3)C[C@H]2C(N)=O)n[nH]1	599 s
CCNC(=O)c1[nH]c2ccc(F)cc2c1N1CCCC1=O	676 s
Cc1cc(C)n2ncc(-c3ccc(C)c(S(=O)(=O)NCc4ccc(F)cc4Cl)c3)c2n1	1080 s
Cc1cc(N2CCCC2)nc(N2CCN(C(=O)c3ccc(Br)cc3)CC2)n1	713 s
CCCCN1CCN(C(=O)C2CC(=O)N(c3ccc4c(c3)CCN4C(=O)C3CC3)C2)CC1 (centres undefined)	599 s

Compound	RP-LC retention time
CCOC(=O)c1c(S(=O)(=O)N2CCC(C(=O)Nc3cc(C)ccn3)CC2)c(C)n(C)c1C	644 s
Cc1c(S(=O)(=O)NCc2ccccc2Cl)c(C)n(C)c1-c1nnc(C2CCC2)o1	1000 s
CCc1ccc(Oc2cc(N3CCC(C(=O)NCCC4=CCCCC4)CC3)ncn2)cc1	1150 s
CCOc1ccc(NC(=O)Nc2nccn(-c3ccccc3)c2=O)cc1	913 s
Cc1ccc(-c2nc3sc(N4CCCCC4)nn3c2NC(=O)C2CC2)cc1	885 s
Cc1c(C(=O)NCc2ccccc2Br)cc(-c2ccccc2)n1C	1040 s
Cc1sc(-c2cc(C(F)(F)F)on2)cc1S(=O)(=O)N1CCCCC1	1210 s
CCNC(=O)N1CCC(c2noc(-c3cnccn3)n2)C1 (centres undefined)	608 s
CCOC(=O)COc1cc(-c2ccc(C)cc2)nc2ccc(NC(=O)C3CCCC3)cc12	854 s
CCN1C(=O)COc2ccc(-c3noc(-c4ccc(C#N)cc4)n3)cc21	1050 s
COc1ccc(OC)c(NC(=O)NC(C)C(=O)N2CCc3ccccc32)c1 (centres undefined)	859 s
O=C(O)CCCNS(=O)(=O)c1ccc2ccccc2c1	717 s
Cn1nccc1C(=O)N1CC(c2nc(CCOCC3CCCC3)no2)C1	824 s
CC(C)(NC(=O)c1cc(Cl)c2ccccc2c1O)C(=O)O	1010 s
O=C(NC1CCCCCCC1)C1CCN(C(=O)c2cccn2-c2cccnc2)CC1	797 s
N#Cc1ccc(C(=O)N2CCCC2c2nc(-c3cccc(C(F)(F)F)c3)no2)c(F)c1 (centres undefined)	1060 s
COc1cccc(-c2cc(C(=O)NCCC3=CCCCC3)n(C)n2)c1	1060 s
CCOC(=O)c1cccc(NS(=O)(=O)c2cc(-c3c(C)noc3NC(C)=O)ccc2OC)c1	781 s
COc1ccc(-c2nnc(Cc3nc(-c4cccc(Cl)c4)no3)o2)cc1	1020 s
CCOc1ccc(CNS(=O)(=O)c2cc(C(=O)N3CCCC3)n(C)c2C)cc1	771 s
O=C(C1CCN(c2cnc3nccnc3c2)CC1)N1CCN(c2ccccc2F)CC1	747 s
CCN1C(=O)c2cc(S(=O)(=O)Nc3cccc(C)c3)ccc2Oc2cccnc21	1010 s

Other lines, results leading:

RP-LC retention time	Compound
959 s	COc1ccc2c(c1)C=C(C(=O)NCCc1ccccc1)C=CO2
1030 s	Cc1sc2ccn(C)c(=O)c2c1C(=O)NC1CCN(Cc2ccccc2)CC1
630 s	CC(NC(=O)C1CCc2nc(N3CCOCC3)ncc2C1)c1ccco1 (centres undefined)
635 s	CC1CCN(CCNC(=O)c2nc(CCS(=O)(=O)c3ccccc3)no2)CC1
719 s	COc1cccc(CNC(=O)C(=O)NCC2CCN(C(=O)NC(C)(C)C)CC2)c1
910 s	CCOc1ccccc1NC(=O)C1CCN(S(C)(=O)=O)c2cc(Cl)ccc2O1 (centres undefined)
928 s	Cn1nc(-c2nc(C3CC3)no2)c2c1CCN(C(=O)c1ccc(Cl)s1)C2
840 s	CCOc1ccc(/C=C2\NC(=S)NC2=O)cc1
722 s	CN(C)c1ncncc1N1CCC(C(=O)N2CCN(c3cccc(Cl)c3)CC2)CC1
830 s	O=C(Nc1ccnn1Cc1ccco1)c1cc(=O)c2cc(Cl)ccc2o1
694 s	CC(C)NC(=O)c1ccc(-c2nc3cc(NS(=O)(=O)CCc4ccccc4)ccc3n2C)cc1
760 s	O=C(NCCn1c(=O)n(Cc2ccccc2)c2cccnc21)C1CCCC1
1020 s	CNC(=O)c1c(NC(=O)COc2ccccc2)sc2c1CCC2
693 s	COCCn1c(CCCC(=O)Nc2ccc(Cl)cc2)nc2cccnc21
672 s	CCOC(=O)c1cc[nH]c1CC(=O)NC
892 s	Cc1cc(N2C=C(C(=O)N3CCOCC3)S(=O)(=O)c3ccc(F)cc32)ccc1Br
674 s	CN1CCN(c2nc(C3=C(c4c[nH]c5ccccc45)C(=O)NC3=O)c3ccccc3n2)CC1
613 s	NC(=O)CNC(=O)c1nc(-c2ccsc2)nc2c1OCCO2
656 s	O=C(C1CCCCC1)N1CCC(c2noc(CO)n2)C1 (centres undefined)
644 s	CC(=O)Nc1cc(NC(C)=O)ncn1
655 s	O=C(Cn1nc2n(c1=O)CCCCC2)Nc1ccc2c(c1)OCO2
861 s	COc1ccc(-n2cc(C(=O)OCc3cc(=O)n4ccccc4n3)c3ccccc3c2=O)cc1

RP-LC retention time	Compound
1020 s	O=C1N(c2ccc(F)cc2)c2ncccc2S(=O)(=O)N1Cc1ccccc1
788 s	CCSc1nnc2c(n1)OC(c1cccn1C)N(C(C)=O)c1ccccc1-2 (centres undefined)
873 s	CC1=C(c2ccccc2)S(=O)(=O)N=C1N1CCCN(C(=O)C(C)c2ccccc2)CC1 (centres undefined)
669 s	CC(=O)N1CCN(Cc2nc(-c3ccc(N4CCSCC4)nc3)no2)CC1
828 s	COc1ccc(CCNC(=O)C2CCCN(S(=O)(=O)c3ccc4c(ccn4C)c3)C2)cc1OC (centres undefined)
1010 s	CCS(=O)(=O)c1nc2ccc(NS(=O)(=O)c3ccc4c(c3)CCCC4)cc2s1
615 s	O=C(C1CCN(c2nc3ccc(-c4cccnc4)nc3s2)CC1)N1CCCC1
669 s	COCC(=O)NC1CCC12CCN(C(=O)c1cccs1)CC2 (centres undefined)
1230 s	O=C(NCc1ccc(C(F)(F)F)cc1)c1c(O)c2cccnc2n(-c2ccccc2)c1=O
844 s	COc1ccc(NC(=O)Cn2nc3nc(N4CCCC(C)C4)ccn3c2=O)cc1OC (centres undefined)
691 s	CC1CCN(CC2CCN(S(=O)(=O)c3cccc(Cl)c3)CC2)CC1
921 s	CCc1ccc(NC(=O)N2CCC(n3cnc4ccc(Cl)cc4c3=O)CC2)cc1
826 s	CCOC(=O)c1nc(Nc2cccc(C)c2C)c2ccccc2n1
824 s	Cc1ccc(CNC(=O)CN2C(=O)CCCc3cc(S(=O)(=O)N4CCCC4)ccc32)cc1
797 s	CCn1cnc(S(=O)(=O)N2CCCC(C(=O)Nc3cccc(Cl)c3)C2)c1 (centres undefined)
837 s	CCCSc1nc2c(c(=O)n(C)c(=O)n2C)n1C
554 s	Cn1c(=O)c2c(-c3ccncc3)c(C#N)c(N)nc2n(C)c1=O
928 s	CCOc1ccccc1NC(=O)Cn1ccc2ccc(-c3nnc(CC)o3)cc21
899 s	Cn1c(=O)n(C)c2cc(S(=O)(=O)c3ccc(F)cc3)c(NC(=O)c3ccc(F)cc3)cc21
688 s	COc1ccc(C(C)NC(=O)C2CC(=O)N(c3ccc4c(c3)CCN4C(C)=O)C2)cc1 (centres undefined)
760 s	CCCN(C)C(=O)c1ccc2c(c1)Sc1ncccc1C(=O)N2C(C)C
865 s	Cc1sc(NC(=O)CC(C)C)nc1-c1ccc2c(c1)NC(=O)C(C)O2 (centres undefined)
